Source: US11098040B2, “Compounds and methods of use” (Ferro Therapeutics, Inc., priority 2018, dated 2021)
Like-named read-outs stand apart in the source and are kept apart here.

Assays:
[1] = Whole blood stability, human; format: in vitro ADME
From the text: (§1) The results of the assay on stability in blood and IC50 values for pancreatic cancer cell line KP4 are given below in Table 24.

KP4 = assay: Cell viability assay (CellTiter Glo), pancreatic ductal adenocarcinoma KP4; format: cell-based, human; settings: pancreatic cancer cell line KP4, 96 hours, CellTiter Glo, read-out: IC50 μM KP4
Outline: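 Luminescent ATP readout (CellTiter Glo) after 96 h compound exposure, normalized to DMSO-treated cells as maximum. Compounds ran in duplicate, nine 3-fold steps from 30 μM down to 4.6 nM, final DMSO ≤0.25%; KP4 plated overnight at 1,000–10,000 cells/well. Outputs: IC50, relative IC50 or % top inhibition.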

[2] = Whole blood stability, mouse; format: in vitro ADME
From the text: as §1

Row | Compound | Whole Blood Stability % Remaining at 37° C. Human ([1]; 0 min) [%] | Whole Blood Stability % Remaining at 37° C. Human ([1]; 30 min) [%] | Whole Blood Stability % Remaining at 37° C. Human ([1]; 60 min) [%] | IC50 (KP4; Homo sapiens, KP-4, 96 h) [µM] | Whole Blood Stability % Remaining at 37° C. Mouse ([2]; 0 min) [%] | Whole Blood Stability % Remaining at 37° C. Mouse ([2]; 30 min) [%] | Whole Blood Stability % Remaining at 37° C. Mouse ([2]; 60 min) [%] | IC50 (KP4) [µM]
1 | COC(=O)[C@H]1Cc2c([nH]c3ccccc23)[C@H](c2ccc(S(=O)(=O)N[C@]34C[C@H]5C[C@H](C[C@H](C5)C3)C4)cc2)N1C(=O)CCl [Compound 24] | 100.0 | 61.7 | 50.2 | < 0.01 | 100.0 | 62.0 | 37.0 | –
2 | CN(C)C(=O)c1ccc([C@H]2c3[nH]c4ccccc4c3C[C@H](C(=O)N(C)C)N2C(=O)CCl)cc1 [Compound 38] | 100.0 | 46.2 | 28.5 | 0.5 to 1 | 100.0 | 72.9 | 62.0 | –
3 | CN(C)C(=O)[C@H]1Cc2c([nH]c3ccccc23)[C@H](C2CCN(C(=O)OC(C)(C)C)CC2)N1C(=O)CCl [Compound 42] | 100.0 | 46.2 | 28.5 | > 1 | 100.0 | 72.9 | 62.0 | –
4 | COC(=O)c1ccc([C@H]2c3[nH]c4ccccc4c3C[C@H](C(=O)O)N2C(=O)CCl)cc1 [Compound 3] | 100 | 43.0 | 29.4 | > 1 | 100 | 51.3 | 23.6 | –
5 | COC(=O)[C@H]1Cc2c([nH]c3ccccc23)[C@H](c2ccc(C(=O)NCCN3CCOCC3)cc2)N1C(=O)CCl [Compound 27] | 100.0 | 63.9 | 48.3 | 0.01 to 0.1 | 100.0 | 78.2 | 73.2 | –
6 | COC(=O)[C@H]1Cc2c([nH]c3ccccc23)[C@H](c2ccc(C(=O)N3CCOCC3)cc2)N1C(=O)CCl [Compound 26] | 100.0 | 47.1 | 22.9 | 0.01 to 0.1 | 100.0 | 67.7 | 55.7 | –
7 | COC(=O)[C@H]1Cc2c([nH]c3ccccc23)[C@H](c2ccc(C(=O)O)cc2)N1C(=O)CCl [Compound 4] | 100.0 | 59.3 | 57.9 | > 1 | 100.0 | 76.6 | 63.9 | –
8 | COC(=O)[C@H]1Cc2c([nH]c3ccccc23)[C@H](c2ccc(C(=O)OC(C)(C)C)cc2)N1C(=O)/C=C/CCl [Compound 25] | 100.0 | 55.0 | 51.9 | 0.1 to 0.5 | 100.0 | 46.2 | 24.4 | –
9 | COC(=O)[C@H]1Cc2c([nH]c3ccccc23)[C@H](c2ccc(OC(C)=O)cc2)N1C(=O)CCl [Compound 12] | 100.0 | 0.0 | 0.1 | 0.01 to 0.1 | 100.0 | 0.0 | 0.0 | –
10 | COC(=O)[C@H]1Cc2c([nH]c3ccccc23)[C@@H](c2ccc(S(=O)(=O)N(C)C)cc2)N1C(=O)CCl [Compound 23a] | 100.0 | 83.2 | 72.7 | > 1 | 100.0 | 83.8 | 78.6 | –

Results, then the compound that gave them:

Row | Whole Blood Stability % Remaining at 37° C. Human ([1]; 0 min) [%] | Whole Blood Stability % Remaining at 37° C. Human ([1]; 30 min) [%] | Whole Blood Stability % Remaining at 37° C. Human ([1]; 60 min) [%] | IC50 (KP4; Homo sapiens, KP-4, 96 h) [µM] | Whole Blood Stability % Remaining at 37° C. Mouse ([2]; 0 min) [%] | Whole Blood Stability % Remaining at 37° C. Mouse ([2]; 30 min) [%] | Whole Blood Stability % Remaining at 37° C. Mouse ([2]; 60 min) [%] | IC50 (KP4) [µM] | Compound
11 | 100.0 | 96.1 | 68.1 | 0.5 to 1 | 100.0 | 79.2 | 87.7 | – | C[C@H]1Cc2c([nH]c3ccccc23)[C@@H](c2ccc(C(=O)NC34CC(C3)C4)cc2)N1C(=O)CCl [Compound 111]
12 | 100.0 | 71.4 | 56.4 | > 1 | 100.0 | 91.2 | 81.5 | – | CN(C)C(=O)[C@H]1Cc2c([nH]c3ccccc23)[C@H](c2ccc(C(=O)N3CCC(O)CC3)cc2)N1C(=O)CCl [Compound 45]
13 | 100.0 | 60.9 | 44.3 | < 0.01 | 100.0 | 35.8 | 10.8 | – | COC(=O)c1cccc([C@H]2c3[nH]c4ccccc4c3C[C@H](C(=O)OC)N2C(=O)CCl)c1 [Compound 100]
14 | 100.0 | 60.8 | 41.2 | 0.1 to 0.5 | 100.0 | 0.0 | 0.0 | – | COC(=O)c1ccc([C@@H]2c3sc4ccccc4c3C[C@H](C(=O)OC)N2C(=O)CCl)cc1 [Example 55d]
15 | 100.0 | 42.6 | 16.7 | 0.5 to 1 | 100.0 | 82.3 | 60.4 | – | CN(C)C(=O)c1ccc([C@@H]2c3sc4ccccc4c3C[C@H](C(=O)N(C)C)N2C(=O)CCl)cc1 [Compound 55a]
16 | 100.0 | 48.0 | 40.6 | < 0.01 | 100.0 | 64.2 | 39.8 | – | COC(=O)[C@H]1Cc2c([nH]c3ccccc23)[C@H](c2ccc(C(=O)NCC3CC3)cc2)N1C(=O)CCl [Compound 81]
17 | 100.0 | 98.4 | 75.2 | < 0.01 | 100.0 | 87.1 | 56.6 | – | C[C@H]1Cc2c([nH]c3ccccc23)[C@H](c2ccc(N3CCOCC3)cc2)N1C(=O)CCl [Compound 103, 2-chloro-1-((1S,3S)-3-methyl-1-(4-morpholinophenyl)-1,3,4,9-tetrahydro-2H-pyrido[3,4-b]indol-2-yl)ethan-1-one]
18 | 100.0 | 60.8 | 42.5 | < 0.01 | 100.0 | 0.2 | 0.2 | – | COC(=O)c1ccc([C@H]2c3[nH]c4ccccc4c3C[C@H](C(=O)OC)N2C(=O)CCl)cc1 [K601 (RSL3), reference compound]
19 | 100.0 | 70.1 | 51.1 | – | 100.0 | 0.0 | 0.0 | < 0.01 | (1S,3R)-RSL3-alkyne [Compound BX, reference compound]
20 | 100.0 | 94.5 | 67.9 | > 1 | 100.0 | 4.0 | 0.0 | – | CC[C@H]1Cc2c([nH]c3ccccc23)[C@@H](c2ccc(C(=O)OC)cc2)N1C(=O)CCl [Compound 99]
21 | 100.0 | 63.2 | 32.2 | < 0.01 | 100.0 | 0.0 | 0.0 | – | COC(=O)[C@H]1Cc2c([nH]c3ccc(Br)cc23)[C@H](c2ccc(C(=O)OCC3CC3)cc2)N1C(=O)CCl [Compound 87]
